Assay results from US20240415914A1, “Water Dispersible Cannabinoid Compositions” (priority 2021, published 2024).
Read-outs that look alike come from different tables or passages of the source.

What was measured:
[1] = format: physicochemical; conditions: stored at room temperature (21-25° C.)
Description: At each time period, 0.05 g of powder was dissolved in 10 ml-15 of ethanol, diluted to fall within the analytical range, and injected into the LCMSMS for analysis.

[2] = Stability of cannabinoid and Vitamin E components of Beverage 2 (AB Red) stored at 8° C. and 21-25° C., LCMSMS over 570 days
Description: The LCMSMS was calibrated for 0-50 ng/ml cannabinoids with the same resin material used in the preparation of the concentrates. At each time period, 100 μml of beverage was diluted with 10 ml of methanol and injected into the LCMSMS for analysis.

Structure (SMILES): CCCc1cc(O)c2c(c1)OC(C)(C)[C@@H]1CCC(C)=C[C@@H]21 [THCV, delta-9-tetrahydrocannabivarin]
- Stability in Powder Concentrate (content by LCMSMS) ([1]; day 0): 0.680 mg/g powder
- Stability in Powder Concentrate (content by LCMSMS) ([1]; day 1): 0.685 mg/g powder
- Stability in Powder Concentrate (content by LCMSMS) ([1]; day 2): 0.699 mg/g powder
- Stability in Powder Concentrate (content by LCMSMS) ([1]; day 3): 0.698 mg/g powder
- Stability in Powder Concentrate (content by LCMSMS) ([1]; day 5): 0.676 mg/g powder
- Stability in Powder Concentrate (content by LCMSMS) ([1]; day 8): 0.685 mg/g powder
- Stability in Powder Concentrate (content by LCMSMS) ([1]; day 9): 0.693 mg/g powder
- Stability in Powder Concentrate (content by LCMSMS) ([1]; day 10): 0.706 mg/g powder
- Stability in Powder Concentrate (content by LCMSMS) ([1]; day 11): 0.708 mg/g powder
- Stability in Powder Concentrate (content by LCMSMS) ([1]; day 12): 0.698 mg/g powder
- Stability in Powder Concentrate (content by LCMSMS) ([1]; day 15): 0.684 mg/g powder
- Stability in Powder Concentrate (content by LCMSMS) ([1]; day 16): 0.658 mg/g powder
- Stability in Powder Concentrate (content by LCMSMS) ([1]; day 17): 0.681 mg/g powder
- Stability in Powder Concentrate (content by LCMSMS) ([1]; day 18): 0.690 mg/g powder
- Stability in Powder Concentrate (content by LCMSMS) ([1]; day 19): 0.705 mg/g powder
- Stability in Powder Concentrate (content by LCMSMS) ([1]; day 22): 0.703 mg/g powder
- Stability in Powder Concentrate (content by LCMSMS) ([1]; day 23): 0.687 mg/g powder
- Stability in Powder Concentrate (content by LCMSMS) ([1]; day 24): 0.668 mg/g powder
- Stability in Powder Concentrate (content by LCMSMS) ([1]; day 25): 0.689 mg/g powder
- Stability in Powder Concentrate (content by LCMSMS) ([1]; day 26): 0.686 mg/g powder
- Stability in Powder Concentrate (content by LCMSMS) ([1]; day 29): 0.706 mg/g powder
- Stability in Powder Concentrate (content by LCMSMS) ([1]; day 30): 0.659 mg/g powder
- Stability in Powder Concentrate (content by LCMSMS) ([1]; day 60): 0.702 mg/g powder
- Stability in Powder Concentrate (content by LCMSMS) ([1]; day 90): 0.707 mg/g powder
- Stability in Powder Concentrate (content by LCMSMS) ([1]; day 120): 0.658 mg/g powder
- Stability in Powder Concentrate (content by LCMSMS) ([1]; day 150): 0.695 mg/g powder
- Stability in Powder Concentrate (content by LCMSMS) ([1]; day 180): 0.685 mg/g powder
- Stability in Powder Concentrate (content by LCMSMS) ([1]; day 210): 0.662 mg/g powder
- Stability in Powder Concentrate (content by LCMSMS) ([1]; day 240): 0.700 mg/g powder
- Stability in Powder Concentrate (content by LCMSMS) ([1]; day 270): 0.670 mg/g powder
- Stability in Powder Concentrate (content by LCMSMS) ([1]; day 300): 0.685 mg/g powder
- Stability in Powder Concentrate (content by LCMSMS) ([1]; day 330): 0.691 mg/g powder
- Stability in Powder Concentrate (content by LCMSMS) ([1]; day 360): 0.668 mg/g powder
- Stability in Powder Concentrate (content by LCMSMS) ([1]; day 390): 0.680 mg/g powder
- Stability in Powder Concentrate (content by LCMSMS) ([1]; day 420): 0.671 mg/g powder
- Stability in Powder Concentrate (content by LCMSMS) ([1]; day 450): 0.680 mg/g powder
- Stability in Powder Concentrate (content by LCMSMS) ([1]; day 480): 0.695 mg/g powder
- Stability in Powder Concentrate (content by LCMSMS) ([1]; day 510): 0.696 mg/g powder
- Stability in Powder Concentrate (content by LCMSMS) ([1]; day 540): 0.664 mg/g powder
- Stability in Powder Concentrate (content by LCMSMS) ([1]; day 570): 0.686 mg/g powder
- Stability of Cannabinoids in AB Red ([2]; 8° C., 0 days): 3.22 µg/mL
- Stability of Cannabinoids in AB Red ([2]; 8° C., 1 days): 3.19 µg/mL
- Stability of Cannabinoids in AB Red ([2]; 8° C., 2 days): 3.17 µg/mL
- Stability of Cannabinoids in AB Red ([2]; 8° C., 3 days): 3.20 µg/mL
- Stability of Cannabinoids in AB Red ([2]; 8° C., 5 days): 3.24 µg/mL
- Stability of Cannabinoids in AB Red ([2]; 8° C., 8 days): 3.17 µg/mL
- Stability of Cannabinoids in AB Red ([2]; 8° C., 9 days): 3.14 µg/mL
- Stability of Cannabinoids in AB Red ([2]; 8° C., 10 days): 3.14 µg/mL
- Stability of Cannabinoids in AB Red ([2]; 8° C., 11 days): 3.24 µg/mL
- Stability of Cannabinoids in AB Red ([2]; 8° C., 12 days): 3.25 µg/mL
- Stability of Cannabinoids in AB Red ([2]; 8° C., 15 days): 3.19 µg/mL
- Stability of Cannabinoids in AB Red ([2]; 8° C., 16 days): 3.25 µg/mL
- Stability of Cannabinoids in AB Red ([2]; 8° C., 17 days): 3.12 µg/mL
- Stability of Cannabinoids in AB Red ([2]; 8° C., 18 days): 3.17 µg/mL
- Stability of Cannabinoids in AB Red ([2]; 8° C., 19 days): 3.19 µg/mL
- Stability of Cannabinoids in AB Red ([2]; 8° C., 22 days): 3.22 µg/mL
- Stability of Cannabinoids in AB Red ([2]; 8° C., 23 days): 3.25 µg/mL
- Stability of Cannabinoids in AB Red ([2]; 8° C., 24 days): 3.15 µg/mL
- Stability of Cannabinoids in AB Red ([2]; 8° C., 25 days): 3.25 µg/mL
- Stability of Cannabinoids in AB Red ([2]; 8° C., 26 days): 3.13 µg/mL
- Stability of Cannabinoids in AB Red ([2]; 8° C., 29 days): 3.22 µg/mL
- Stability of Cannabinoids in AB Red ([2]; 8° C., 30 days): 3.20 µg/mL
- Stability of Cannabinoids in AB Red ([2]; 8° C., 60 days): 3.11 µg/mL
- Stability of Cannabinoids in AB Red ([2]; 8° C., 90 days): 3.10 µg/mL
- Stability of Cannabinoids in AB Red ([2]; 8° C., 120 days): 3.10 µg/mL
- Stability of Cannabinoids in AB Red ([2]; 8° C., 150 days): 3.15 µg/mL
- Stability of Cannabinoids in AB Red ([2]; 8° C., 180 days): 3.10 µg/mL
- Stability of Cannabinoids in AB Red ([2]; 8° C., 210 days): 3.15 µg/mL
- Stability of Cannabinoids in AB Red ([2]; 8° C., 240 days): 3.08 µg/mL
- Stability of Cannabinoids in AB Red ([2]; 8° C., 270 days): 3.15 µg/mL
- Stability of Cannabinoids in AB Red ([2]; 8° C., 300 days): 3.15 µg/mL
- Stability of Cannabinoids in AB Red ([2]; 8° C., 330 days): 3.15 µg/mL
- Stability of Cannabinoids in AB Red ([2]; 8° C., 390 days): 3.08 µg/mL
- Stability of Cannabinoids in AB Red ([2]; 8° C., 420 days): 3.13 µg/mL
- Stability of Cannabinoids in AB Red ([2]; 8° C., 450 days): 3.08 µg/mL
- Stability of Cannabinoids in AB Red ([2]; 8° C., 480 days): 3.05 µg/mL
- Stability of Cannabinoids in AB Red ([2]; 8° C., 510 days): 2.95 µg/mL
- Stability of Cannabinoids in AB Red ([2]; 8° C., 540 days): 2.99 µg/mL
- Stability of Cannabinoids in AB Red ([2]; 8° C., 570 days): 2.95 µg/mL
- Stability of Cannabinoids in AB Red ([2]; 21-25° C., 0 days): 3.22 µg/mL
- Stability of Cannabinoids in AB Red ([2]; 21-25° C., 1 days): 3.13 µg/mL
- Stability of Cannabinoids in AB Red ([2]; 21-25° C., 2 days): 3.20 µg/mL
- Stability of Cannabinoids in AB Red ([2]; 21-25° C., 3 days): 3.25 µg/mL
- Stability of Cannabinoids in AB Red ([2]; 21-25° C., 5 days): 3.25 µg/mL
- Stability of Cannabinoids in AB Red ([2]; 21-25° C., 8 days): 3.19 µg/mL
- Stability of Cannabinoids in AB Red ([2]; 21-25° C., 9 days): 3.17 µg/mL
- Stability of Cannabinoids in AB Red ([2]; 21-25° C., 10 days): 3.09 µg/mL
- Stability of Cannabinoids in AB Red ([2]; 21-25° C., 11 days): 3.24 µg/mL
- Stability of Cannabinoids in AB Red ([2]; 21-25° C., 12 days): 3.24 µg/mL
- Stability of Cannabinoids in AB Red ([2]; 21-25° C., 15 days): 3.20 µg/mL
- Stability of Cannabinoids in AB Red ([2]; 21-25° C., 16 days): 3.20 µg/mL
- Stability of Cannabinoids in AB Red ([2]; 21-25° C., 17 days): 3.11 µg/mL
- Stability of Cannabinoids in AB Red ([2]; 21-25° C., 18 days): 3.19 µg/mL
- Stability of Cannabinoids in AB Red ([2]; 21-25° C., 19 days): 3.19 µg/mL
- Stability of Cannabinoids in AB Red ([2]; 21-25° C., 22 days): 3.18 µg/mL
- Stability of Cannabinoids in AB Red ([2]; 21-25° C., 23 days): 3.23 µg/mL
- Stability of Cannabinoids in AB Red ([2]; 21-25° C., 24 days): 3.25 µg/mL
- Stability of Cannabinoids in AB Red ([2]; 21-25° C., 25 days): 3.24 µg/mL
- Stability of Cannabinoids in AB Red ([2]; 21-25° C., 26 days): 3.11 µg/mL
- Stability of Cannabinoids in AB Red ([2]; 21-25° C., 29 days): 3.15 µg/mL
- Stability of Cannabinoids in AB Red ([2]; 21-25° C., 30 days): 3.15 µg/mL
- Stability of Cannabinoids in AB Red ([2]; 21-25° C., 60 days): 3.18 µg/mL
- Stability of Cannabinoids in AB Red ([2]; 21-25° C., 90 days): 3.05 µg/mL
- Stability of Cannabinoids in AB Red ([2]; 21-25° C., 120 days): 3.09 µg/mL
- Stability of Cannabinoids in AB Red ([2]; 21-25° C., 150 days): 3.17 µg/mL
- Stability of Cannabinoids in AB Red ([2]; 21-25° C., 180 days): 3.10 µg/mL
- Stability of Cannabinoids in AB Red ([2]; 21-25° C., 210 days): 3.03 µg/mL
- Stability of Cannabinoids in AB Red ([2]; 21-25° C., 240 days): 3.18 µg/mL
- Stability of Cannabinoids in AB Red ([2]; 21-25° C., 270 days): 3.04 µg/mL
- Stability of Cannabinoids in AB Red ([2]; 21-25° C., 300 days): 3.14 µg/mL
- Stability of Cannabinoids in AB Red ([2]; 21-25° C., 330 days): 3.19 µg/mL
- Stability of Cannabinoids in AB Red ([2]; 21-25° C., 390 days): 3.04 µg/mL
- Stability of Cannabinoids in AB Red ([2]; 21-25° C., 420 days): 3.10 µg/mL
- Stability of Cannabinoids in AB Red ([2]; 21-25° C., 450 days): 3.14 µg/mL
- Stability of Cannabinoids in AB Red ([2]; 21-25° C., 480 days): 3.04 µg/mL
- Stability of Cannabinoids in AB Red ([2]; 21-25° C., 510 days): 3.01 µg/mL
- Stability of Cannabinoids in AB Red ([2]; 21-25° C., 540 days): 2.95 µg/mL
- Stability of Cannabinoids in AB Red ([2]; 21-25° C., 570 days): 2.98 µg/mL
